Experimental data from US20260364214A1, “MULTIVALENT FIBROBLAST ACTIVATION PROTEIN LIGANDS FOR TARGETED DELIVERY APPLICATIONS” (Philochem AG, priority 2022, published 2026).

How the values were obtained:
SK-RC-52.hFAP tumors = test: Quantitative biodistribution in SK-RC-52.hFAP tumor bearing mice; format: in vivo, mouse (female athymic Balb/c AnNRj-Foxn1); details: i.v. 250 nmol/kg, 50 MBq/kg
Experimental: SK-RC-52.hFAP were grown to 80% confluence in RPMI-1640 with 10% fetal bovine serum (FBS) and 1% antibiotic-antimycotic and detached with Trypsin-EDTA (ethylenediaminetetraacetic acid) 0.05%. Tumor cells were resuspended in Hanks' Balanced Salt Solution medium. Aliquots of 5 million cells (100 μL of suspension) were injected subcutaneously in the right flank of female athymic Balb/c AnNRj-Foxn1 mice (6 to 8 wk of age).
Radiolabeling of ESV6-DOTAGA, Bi-ESV6-DOTAGA, Tri-ESV6-DOTAGA, Tetra-ESV6-DOTAGA, Hexa-ESV6-DOTAGA, Octa-ESV6-DOTAGA and FAP-2286 with lutetium-177 (a therapeutic radionuclide) was performed with different specific activities for three different studies (biodistribution, therapy and dose optimization).
Prior to the biodistribution study, precursors (100 nmol) were dissolved in 100 μL of milliQ water and diluted with 200 μL of sodium acetate (1 M in water, pH=4.5). 20 MBq of ^177Lu solution were added and the mixture was heated at 90 °C for 10 minutes, followed by dilution with […] of PBS to achieve final volume of 2 mL (20 doses of 100 μL each).
ESV6-DOTAGA, Bi-ESV6-DOTAGA, Tri-ESV6-DOTAGA, Tetra-ESV6-DOTAGA, Hexa-ESV6-DOTAGA, Octa-ESV6-DOTAGA and FAP-2286 were radiolabeled with ^177Lu as described above. Tumors were allowed to grow to an average volume of 300 mm^3. Mice were randomized and injected intravenously with radiolabeled preparations of ^177Lu-ESV6, ^177Lu-Bi-ESV6, ^177Lu-Tri-ESV6, Tetra-ESV6-DOTAGA, Hexa-ESV6-DOTAGA, Octa-ESV6-DOTAGA or ^177Lu-FAP-2286 (250 nmol/kg; 50 MBq/kg). Mice were euthanized at different time-points after the intravenous injection by CO2 asphyxiation. Tumors, organs, and blood were collected, weighted, and radioactivity was measured with a Packard Cobra Gamma Counter. Values are expressed as percent ID/g±SD [FIG. 4]. The % ID/g in the tumors was corrected considering the SK-RC-52.hFAP tumor growth rate.
Quantitative in vivo biodistribution of ^177Lu-ESV6-DOTAGA, ^177Lu-Bi-ESV6-DOTAGA, ^177Lu-Tri-ESV6-DOTAGA, ^177Lu-FAP-2286, Tetra-ESV6-DOTAGA, Hexa-ESV6-DOTAGA and Octa-ESV6-DOTAGA at different time points after intravenous administration (250 nmol/kg, 50 MBq/kg) in mice bearing SK-RC-52.hFAP tumors, are shown in Tables 1 to 4 and 10 to 12. Data are reported as % ID/g±standard deviation.
Tumor-to-organ ratios of ^177Lu-ESV6-DOTAGA, ^177Lu-Bi-ESV6-DOTAGA, ^177Lu-Tri-ESV6-DOTAGA, ^177Lu-FAP-2286, Tetra-ESV6-DOTAGA, Hexa-ESV6-DOTAGA and Octa-ESV6-DOTAGA, at different time points after intravenous administration (250 nmol/kg, 50 MBq/kg) in mice bearing SK-RC-52.hFAP tumors, are shown in Tables 5 to 8 and 13 to 15. Avg.=average; Std.d=standard deviation.

[1] = Tolerability (body weight change) of 177Lu conjugates; format: in vivo, mouse (athymic Balb/c AnNRj-Foxn1); details: single administration, 250 nmol/kg, 250 MBq/kg
Experimental: The anti-cancer efficacy of ^177Lu-ESV6, ^177Lu-Bi-ESV6 and ^177Lu-Tri-ESV6 was assessed in athymic Balb/c AnNRj-Foxn1 mice bearing SK-RC-52.hFAP tumor in the right flank. ^177Lu-ESV6, ^177Lu-Bi-ESV6 or ^177Lu-Tri-ESV6 were intravenously administered at a dose of 250 nmol/kg, 250 MBq/kg (single administration on day 9 after tumor implantation). Therapy experiments started when the average volume of established tumors had reached 100-150 mm^3. Body weight of the animals and tumor volume were daily measured and recorded. Tumor dimensions were measured with an electronic caliper and tumor volume was calculated with the formula (long side, mm)×(short side, mm)×(short side, mm)×0.5. Animals were euthanized when one or more termination criterium indicated by the experimental license was reached. Prism 7 software (GraphPad Software) was used for data analysis.

[2] = 6 h post injection, listed as 177Lu-TriESV6-DOTAGA, 360 min

N#CC1CC(F)(F)CN1C(=O)CNC(=O)c1ccnc2c(NC(=O)CCC(=O)NCCNC(=O)CCOCC(COCCC(=O)NCCNC(=O)CCC(=O)Nc3cccc4c(C(=O)NCC(=O)N5CC(F)(F)CC5C#N)ccnc34)(COCCC(=O)NCCNC(=O)CCC(=O)Nc3cccc4c(C(=O)NCC(=O)N5CC(F)(F)CC5C#N)ccnc34)NC(=O)CCC(C(=O)O)N3CCN(CC(=O)[O-])CCN(CC(=O)[O-])CCN(CC(=O)[O-])CC3)cccc12.[177Lu+3] (stereo not shown) [^177Lu-Tri-ESV6-DOTAGA]
Tumor to organs ratio, Blood (SK-RC-52.hFAP tumors; 6 h): 260.4
Injected dose per gram, Blood (SK-RC-52.hFAP tumors; 6 h post injection): 0.25 % ID/g
Tumor to organs ratio, Blood (SK-RC-52.hFAP tumors; 24 h): 284.8
Injected dose per gram, Blood (SK-RC-52.hFAP tumors; 24 h post injection): 0.07 % ID/g
Tumor to organs ratio, Blood (SK-RC-52.hFAP tumors; 48 h): 1925.8
Injected dose per gram, Blood (SK-RC-52.hFAP tumors; 48 h post injection): 0.01 % ID/g
Tumor to organs ratio, Blood (SK-RC-52.hFAP tumors; 72 h): 7913.2
Injected dose per gram, Blood (SK-RC-52.hFAP tumors; 72 h post injection): 0.01 % ID/g
Tumor to organs ratio, Blood (SK-RC-52.hFAP tumors; 96 h): 3504
Injected dose per gram, Blood (SK-RC-52.hFAP tumors; 96 h post injection): 0.00 % ID/g
Tumor to organs ratio, Heart (SK-RC-52.hFAP tumors; 6 h): 215.4
Injected dose per gram, Heart (SK-RC-52.hFAP tumors; 6 h post injection): 0.23 % ID/g
Tumor to organs ratio, Heart (SK-RC-52.hFAP tumors; 24 h): 269.1
Injected dose per gram, Heart (SK-RC-52.hFAP tumors; 24 h post injection): 0.08 % ID/g
Tumor to organs ratio, Heart (SK-RC-52.hFAP tumors; 48 h): 559.6
Injected dose per gram, Heart (SK-RC-52.hFAP tumors; 48 h post injection): 0.03 % ID/g
Tumor to organs ratio, Heart (SK-RC-52.hFAP tumors; 72 h): 344.2
Injected dose per gram, Heart (SK-RC-52.hFAP tumors; 72 h post injection): 0.07 % ID/g
Tumor to organs ratio, Heart (SK-RC-52.hFAP tumors; 96 h): 492
Injected dose per gram, Heart (SK-RC-52.hFAP tumors; 96 h post injection): 0.03 % ID/g
Tumor to organs ratio, Intestine (SK-RC-52.hFAP tumors; 6 h): 188.9
Injected dose per gram, Intestine (SK-RC-52.hFAP tumors; 6 h post injection): 0.26 % ID/g
Tumor to organs ratio, Intestine (SK-RC-52.hFAP tumors; 24 h): 243.1
Injected dose per gram, Intestine (SK-RC-52.hFAP tumors; 24 h post injection): 0.10 % ID/g
Tumor to organs ratio, Intestine (SK-RC-52.hFAP tumors; 48 h): 282.6
Injected dose per gram, Intestine (SK-RC-52.hFAP tumors; 48 h post injection): 0.06 % ID/g
Tumor to organs ratio, Intestine (SK-RC-52.hFAP tumors; 72 h): 498.0
Injected dose per gram, Intestine (SK-RC-52.hFAP tumors; 72 h post injection): 0.07 % ID/g
Tumor to organs ratio, Intestine (SK-RC-52.hFAP tumors; 96 h): 763
Injected dose per gram, Intestine (SK-RC-52.hFAP tumors; 96 h post injection): 0.02 % ID/g
Tumor to organs ratio, Kidney (SK-RC-52.hFAP tumors; 6 h): 22.9
Injected dose per gram, Kidney (SK-RC-52.hFAP tumors; 6 h post injection): 2.14 % ID/g
Tumor to organs ratio, Kidney (SK-RC-52.hFAP tumors; 24 h): 17.2
Injected dose per gram, Kidney (SK-RC-52.hFAP tumors; 24 h post injection): 1.16 % ID/g
Tumor to organs ratio, Kidney (SK-RC-52.hFAP tumors; 48 h): 21.4
Injected dose per gram, Kidney (SK-RC-52.hFAP tumors; 48 h post injection): 0.78 % ID/g
Tumor to organs ratio, Kidney (SK-RC-52.hFAP tumors; 72 h): 24.8
Injected dose per gram, Kidney (SK-RC-52.hFAP tumors; 72 h post injection): 0.83 % ID/g
Tumor to organs ratio, Kidney (SK-RC-52.hFAP tumors; 96 h): 22
Injected dose per gram, Kidney (SK-RC-52.hFAP tumors; 96 h post injection): 0.73 % ID/g
Tumor to organs ratio, Liver (SK-RC-52.hFAP tumors; 6 h): 76.3
Injected dose per gram, Liver (SK-RC-52.hFAP tumors; 6 h post injection, 360 min): 0.65 % ID/g
Injected dose per gram, Liver (SK-RC-52.hFAP tumors; [2]): ~ 0.7 % ID/g
Tumor to organs ratio, Liver (SK-RC-52.hFAP tumors; 24 h): 43.9
Injected dose per gram, Liver (SK-RC-52.hFAP tumors; 24 h post injection): 0.46 % ID/g
Tumor to organs ratio, Liver (SK-RC-52.hFAP tumors; 48 h): 56.2
Injected dose per gram, Liver (SK-RC-52.hFAP tumors; 48 h post injection): 0.31 % ID/g
Tumor to organs ratio, Liver (SK-RC-52.hFAP tumors; 72 h): 1294.6
Injected dose per gram, Liver (SK-RC-52.hFAP tumors; 72 h post injection): 0.34 % ID/g
Tumor to organs ratio, Liver (SK-RC-52.hFAP tumors; 96 h): 41
Injected dose per gram, Liver (SK-RC-52.hFAP tumors; 96 h post injection): 0.40 % ID/g
Tumor to organs ratio, Lung (SK-RC-52.hFAP tumors; 6 h): 128.8
Injected dose per gram, Lung (SK-RC-52.hFAP tumors; 6 h post injection): 0.38 % ID/g
Tumor to organs ratio, Lung (SK-RC-52.hFAP tumors; 24 h): 196.9
Injected dose per gram, Lung (SK-RC-52.hFAP tumors; 24 h post injection): 0.10 % ID/g
Tumor to organs ratio, Lung (SK-RC-52.hFAP tumors; 48 h): 299.5
Injected dose per gram, Lung (SK-RC-52.hFAP tumors; 48 h post injection): 0.06 % ID/g
Tumor to organs ratio, Lung (SK-RC-52.hFAP tumors; 72 h): 477.1
Injected dose per gram, Lung (SK-RC-52.hFAP tumors; 72 h post injection): 0.11 % ID/g
Tumor to organs ratio, Lung (SK-RC-52.hFAP tumors; 96 h): 344
Injected dose per gram, Lung (SK-RC-52.hFAP tumors; 96 h post injection): 0.06 % ID/g
Tumor to organs ratio, Muscle (SK-RC-52.hFAP tumors; 6 h): 187.0
Injected dose per gram, Muscle (SK-RC-52.hFAP tumors; 6 h post injection): 0.45 % ID/g
Tumor to organs ratio, Muscle (SK-RC-52.hFAP tumors; 24 h): 159.9
Injected dose per gram, Muscle (SK-RC-52.hFAP tumors; 24 h post injection): 0.18 % ID/g
Tumor to organs ratio, Muscle (SK-RC-52.hFAP tumors; 48 h): 1095.4
Injected dose per gram, Muscle (SK-RC-52.hFAP tumors; 48 h post injection): 0.04 % ID/g
Tumor to organs ratio, Muscle (SK-RC-52.hFAP tumors; 72 h): 536.6
Injected dose per gram, Muscle (SK-RC-52.hFAP tumors; 72 h post injection): 0.04 % ID/g
Tumor to organs ratio, Muscle (SK-RC-52.hFAP tumors; 96 h): 514
Injected dose per gram, Muscle (SK-RC-52.hFAP tumors; 96 h post injection): 0.03 % ID/g
Tumor to organs ratio, Spleen (SK-RC-52.hFAP tumors; 6 h): 196.0
Injected dose per gram, Spleen (SK-RC-52.hFAP tumors; 6 h post injection, 360 min): 0.30 % ID/g
Injected dose per gram, Spleen (SK-RC-52.hFAP tumors; [2]): ~ 0.3 % ID/g
Tumor to organs ratio, Spleen (SK-RC-52.hFAP tumors; 24 h): 384.4
Injected dose per gram, Spleen (SK-RC-52.hFAP tumors; 24 h post injection): 0.16 % ID/g
Tumor to organs ratio, Spleen (SK-RC-52.hFAP tumors; 48 h): 244.8
Injected dose per gram, Spleen (SK-RC-52.hFAP tumors; 48 h post injection): 0.10 % ID/g
Tumor to organs ratio, Spleen (SK-RC-52.hFAP tumors; 72 h): 92.1
Injected dose per gram, Spleen (SK-RC-52.hFAP tumors; 72 h post injection): 0.24 % ID/g
Tumor to organs ratio, Spleen (SK-RC-52.hFAP tumors; 96 h): 69
Injected dose per gram, Spleen (SK-RC-52.hFAP tumors; 96 h post injection): 0.24 % ID/g
Tumor to organs ratio, Tail (SK-RC-52.hFAP tumors; 6 h): 48.4
Injected dose per gram, Tail (SK-RC-52.hFAP tumors; 6 h post injection): 1.06 % ID/g
Tumor to organs ratio, Tail (SK-RC-52.hFAP tumors; 24 h): 65.3
Injected dose per gram, Tail (SK-RC-52.hFAP tumors; 24 h post injection): 0.31 % ID/g
Tumor to organs ratio, Tail (SK-RC-52.hFAP tumors; 48 h): 136.9
Injected dose per gram, Tail (SK-RC-52.hFAP tumors; 48 h post injection): 0.14 % ID/g
Tumor to organs ratio, Tail (SK-RC-52.hFAP tumors; 72 h): 108.9
Injected dose per gram, Tail (SK-RC-52.hFAP tumors; 72 h post injection): 0.19 % ID/g
Tumor to organs ratio, Tail (SK-RC-52.hFAP tumors; 96 h): 98
Injected dose per gram, Tail (SK-RC-52.hFAP tumors; 96 h post injection): 0.17 % ID/g
Injected dose per gram, Tumor (SK-RC-52.hFAP tumors; 6 h post injection, 360 min): 48.96 % ID/g
Injected dose per gram, Tumor (SK-RC-52.hFAP tumors; [2]): ~ 49 % ID/g
Injected dose per gram, Tumor (SK-RC-52.hFAP tumors; 24 h post injection): 19.78 % ID/g
Injected dose per gram, Tumor (SK-RC-52.hFAP tumors; 48 h post injection): 16.64 % ID/g
Injected dose per gram, Tumor (SK-RC-52.hFAP tumors; 72 h post injection): 20.19 % ID/g
Injected dose per gram, Tumor (SK-RC-52.hFAP tumors; 96 h post injection): 16.26 % ID/g
tumor uptake / biodistribution profile, in words (SK-RC-52.hFAP tumors): best biodistribution profile
tolerability (body weight change), in words [1]: very well tolerated
